Experimental data from patent US20110195111A1, “AQUEOUS COMPOSITIONS AND METHODS” (NATIVIS, INC., priority 2009, published 2011).

Tested on: U-87 glioblastoma cells
Experiment: U-87 glioblastoma flank tumor growth in mice
Type: in vivo
Conditions: U-87 flank tumors in mice, 24-day period; untreated about 650 mm^3 (FIG. 11)
Experimental: The ability of water exposed to a taxane signal to inhibit a glioblastoma tumor in an animal model was investigated. In this study, nine groups of 8 mice were each injected in the right flank with 7.355×10^6 U-87 glioblastoma cells, and treatment with the various modalities was begun either one day after inoculating the animals with the cells, or when the tumors reached 75-100 mm^3.
Paclitaxel was initially dissolved in a 1:1 v/v mixture of CremaphorEL and ethanol and stored at 4° C. Final dilution of the drug to a concentration of 1.5 mg/ml was made with 0.9% NaCl immediately before use. In Groups 3 and 4, the paclitaxel was administered by intravenous injection into the tail vein at a dose of 15/mg/kg animal weight on each of five consecutive days. The actual volume administered to each animal was about 0.2 ml of the above paclitaxel formulation.
Animals in Groups 5 and 6 received 20 ml/kg (or about 0.5 ml) of water exposed to taxane signal prepared as described in Section VII, with the Range 1 magnetic field. […]
For all groups, tumor volumes were measured every other day by serial caliper measurements to determine tumor width and length, and calculating an approximate tumor volume from the formula: Tumor volume=(length×width^2)/2.

Compound: CC(=O)O[C@H]1C(=O)[C@@]2(C)[C@H]([C@H](OC(=O)c3ccccc3)[C@]3(O)C[C@H](OC(=O)[C@H](O)[C@@H](NC(=O)c4ccccc4)c4ccccc4)C(C)=C1C3(C)C)[C@]1(OC(C)=O)CO[C@@H]1C[C@@H]2O [paclitaxel]
- increase in tumor volume over the study period, untreated versus treated animals: more than twice as high in untreated
